From the kinase profiling compilation of Christmann-Franck et al. (2016)

Experiments:
Assay in all cases: KINOMEscan competition binding
[1] = system: PIK3CA (human), P42336 [I800L]; details: compound 1.0 µM
[2] = biological target: PAK3 (human) (UniProt O75914); details: compound 1.0 µM
[3] = biological target: NEK7 (human) (UniProt Q8TDX7); details: compound 1.0 µM
[4] = biological target: FYN (human) (UniProt P06241); details: compound 1.0 µM
[5] = biological target: DSTYK (human) (UniProt Q6XUX3); details: compound 1.0 µM
[6] = biological target: PIK3CA (human) (UniProt P42336); details: compound 1.0 µM
[7] = biological target: PRKG1 (human) (UniProt Q13976); details: compound 1.0 µM
[8] = biological target: MAP2K4 (human) (UniProt P45985); details: compound 1.0 µM
[9] = biological target: PLK1 (human) (UniProt P53350); details: compound 1.0 µM
[10] = biological target: EPHA7 (human) (UniProt Q15375); details: compound 1.0 µM
[11] = biological target: JAK2 JH1 catalytic (human) (UniProt O60674); details: compound 1.0 µM
[12] = biological target: PTK2B (human) (UniProt Q14289); details: compound 1.0 µM
[13] = biological target: MAP2K2 (human) (UniProt P36507); details: compound 1.0 µM
[14] = biological target: FGFR2 (human) (UniProt P21802); details: compound 1.0 µM
[15] = biological target: LRRK2 (human) (UniProt Q5S007); details: compound 1.0 µM
[16] = biological target: MAP3K3 (human) (UniProt Q99759); details: compound 1.0 µM
[17] = biological target: MATK (human) (UniProt P42679); details: compound 1.0 µM
Chain of MATK (human) (P42679 whole entry, looked up): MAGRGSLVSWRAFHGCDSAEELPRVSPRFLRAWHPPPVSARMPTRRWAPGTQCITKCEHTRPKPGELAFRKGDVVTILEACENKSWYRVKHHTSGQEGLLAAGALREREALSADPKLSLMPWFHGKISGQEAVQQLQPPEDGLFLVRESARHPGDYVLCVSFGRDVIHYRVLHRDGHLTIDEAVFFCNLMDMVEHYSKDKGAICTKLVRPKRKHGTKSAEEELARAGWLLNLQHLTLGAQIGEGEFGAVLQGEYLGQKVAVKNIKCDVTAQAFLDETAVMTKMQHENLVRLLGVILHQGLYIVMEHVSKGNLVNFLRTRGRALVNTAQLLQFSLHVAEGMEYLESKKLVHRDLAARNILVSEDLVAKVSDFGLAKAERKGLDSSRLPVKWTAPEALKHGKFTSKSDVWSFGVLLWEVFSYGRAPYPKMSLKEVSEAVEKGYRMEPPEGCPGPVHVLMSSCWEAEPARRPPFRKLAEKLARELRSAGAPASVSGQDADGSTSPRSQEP

[18] = biological target: TRPM6 (human) (UniProt Q9BX84); details: compound 1.0 µM
[19] = biological target: CDK13 (human) (UniProt Q14004); details: compound 1.0 µM
[20] = biological target: AURKA (human) (UniProt O14965); details: compound 1.0 µM
Chain of AURKA (human) (O14965 whole entry, looked up): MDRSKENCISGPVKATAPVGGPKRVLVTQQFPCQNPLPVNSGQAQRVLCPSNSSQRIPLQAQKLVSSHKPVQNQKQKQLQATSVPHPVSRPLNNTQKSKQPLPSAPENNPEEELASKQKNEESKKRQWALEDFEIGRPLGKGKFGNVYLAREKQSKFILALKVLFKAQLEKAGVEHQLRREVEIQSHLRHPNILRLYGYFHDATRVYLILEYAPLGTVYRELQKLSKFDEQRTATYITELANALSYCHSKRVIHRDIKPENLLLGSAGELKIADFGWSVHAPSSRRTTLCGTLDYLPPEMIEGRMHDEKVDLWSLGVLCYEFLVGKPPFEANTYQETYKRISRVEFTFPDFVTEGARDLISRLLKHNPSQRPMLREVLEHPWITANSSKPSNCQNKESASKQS

[21] = biological target: DYRK1A (human) (UniProt Q13627); details: compound 1.0 µM
[22] = biological target: MAP3K7 (human) (UniProt O43318); details: compound 1.0 µM
[23] = biological target: EPHB2 (human) (UniProt P29323); details: compound 1.0 µM
[24] = biological target: CDK16 (human) (UniProt Q00536); details: compound 1.0 µM
[25] = biological target: NTRK1 (human) (UniProt P04629); details: compound 1.0 µM
[26] = system: KIT (human), P10721 [V559D/V654A]; details: compound 1.0 µM
Chain of KIT (human), P10721 [V559D/V654A] (P10721 whole entry V559D/V654A, looked up): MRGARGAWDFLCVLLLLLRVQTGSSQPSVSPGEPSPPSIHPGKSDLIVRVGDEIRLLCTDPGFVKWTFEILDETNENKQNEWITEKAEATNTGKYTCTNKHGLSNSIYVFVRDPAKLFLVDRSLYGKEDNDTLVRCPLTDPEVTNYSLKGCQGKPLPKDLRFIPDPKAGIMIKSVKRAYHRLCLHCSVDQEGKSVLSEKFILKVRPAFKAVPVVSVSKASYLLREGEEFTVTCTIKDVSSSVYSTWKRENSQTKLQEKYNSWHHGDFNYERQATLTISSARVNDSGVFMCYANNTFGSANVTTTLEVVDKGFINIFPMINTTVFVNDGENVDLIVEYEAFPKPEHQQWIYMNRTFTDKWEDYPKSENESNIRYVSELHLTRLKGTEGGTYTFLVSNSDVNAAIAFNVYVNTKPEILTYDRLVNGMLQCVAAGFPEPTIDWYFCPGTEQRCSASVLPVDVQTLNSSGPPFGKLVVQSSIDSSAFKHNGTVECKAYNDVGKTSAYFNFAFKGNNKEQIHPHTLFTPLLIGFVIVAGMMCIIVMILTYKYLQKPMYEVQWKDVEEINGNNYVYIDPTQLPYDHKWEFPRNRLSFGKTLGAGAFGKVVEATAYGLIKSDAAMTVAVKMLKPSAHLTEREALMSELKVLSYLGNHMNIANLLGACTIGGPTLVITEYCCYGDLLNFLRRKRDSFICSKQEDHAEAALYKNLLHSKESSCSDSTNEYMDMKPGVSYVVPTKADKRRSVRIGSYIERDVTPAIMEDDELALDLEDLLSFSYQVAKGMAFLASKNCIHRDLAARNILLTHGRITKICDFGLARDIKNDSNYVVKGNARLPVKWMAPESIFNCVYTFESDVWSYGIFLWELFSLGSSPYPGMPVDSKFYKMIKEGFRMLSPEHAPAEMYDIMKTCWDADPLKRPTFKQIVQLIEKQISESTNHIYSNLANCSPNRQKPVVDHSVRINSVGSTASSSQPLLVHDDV

[27] = biological target: PRKG2 (human) (UniProt Q13237); details: compound 1.0 µM
[28] = biological target: AKT3 (human) (UniProt Q9Y243); details: compound 1.0 µM
[29] = biological target: DCLK2 (human) (UniProt Q8N568); details: compound 1.0 µM
Chain of DCLK2 (human) (Q8N568 whole entry, looked up): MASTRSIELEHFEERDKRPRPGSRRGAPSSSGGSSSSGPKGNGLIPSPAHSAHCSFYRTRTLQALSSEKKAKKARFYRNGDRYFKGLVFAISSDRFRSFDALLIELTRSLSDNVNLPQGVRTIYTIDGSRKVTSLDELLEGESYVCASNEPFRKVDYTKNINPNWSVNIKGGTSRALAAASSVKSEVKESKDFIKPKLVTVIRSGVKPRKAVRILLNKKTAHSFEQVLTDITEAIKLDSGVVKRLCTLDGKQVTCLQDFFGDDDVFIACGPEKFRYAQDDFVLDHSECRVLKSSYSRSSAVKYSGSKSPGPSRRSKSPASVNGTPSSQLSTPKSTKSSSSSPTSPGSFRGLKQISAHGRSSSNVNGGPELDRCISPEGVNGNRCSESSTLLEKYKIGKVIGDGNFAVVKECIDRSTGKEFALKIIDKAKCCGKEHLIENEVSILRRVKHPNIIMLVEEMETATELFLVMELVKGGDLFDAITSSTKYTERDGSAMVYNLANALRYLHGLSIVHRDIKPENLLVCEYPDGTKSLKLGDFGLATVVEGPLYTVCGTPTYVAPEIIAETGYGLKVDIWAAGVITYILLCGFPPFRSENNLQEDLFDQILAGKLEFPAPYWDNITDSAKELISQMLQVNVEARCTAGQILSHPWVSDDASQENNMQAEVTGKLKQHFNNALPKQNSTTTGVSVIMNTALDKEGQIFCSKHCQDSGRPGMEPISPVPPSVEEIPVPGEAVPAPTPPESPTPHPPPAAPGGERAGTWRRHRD

[30] = biological target: VRK2 (human) (UniProt Q86Y07); details: compound 1.0 µM
Chain of VRK2 (human) (Q86Y07 whole entry, looked up): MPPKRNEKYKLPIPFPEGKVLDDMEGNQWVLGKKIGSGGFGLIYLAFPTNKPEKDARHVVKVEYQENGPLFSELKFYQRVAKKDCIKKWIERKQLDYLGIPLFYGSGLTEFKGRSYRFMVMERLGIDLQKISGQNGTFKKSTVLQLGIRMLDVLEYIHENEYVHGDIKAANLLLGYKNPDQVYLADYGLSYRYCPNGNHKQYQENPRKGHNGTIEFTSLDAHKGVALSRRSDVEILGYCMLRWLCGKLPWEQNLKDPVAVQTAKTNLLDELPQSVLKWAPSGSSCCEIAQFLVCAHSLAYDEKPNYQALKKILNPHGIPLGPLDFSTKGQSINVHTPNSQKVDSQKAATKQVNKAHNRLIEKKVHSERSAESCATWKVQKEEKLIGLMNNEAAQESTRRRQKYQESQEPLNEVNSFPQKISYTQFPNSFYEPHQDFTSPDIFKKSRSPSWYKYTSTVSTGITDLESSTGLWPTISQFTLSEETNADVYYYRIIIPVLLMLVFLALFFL

[31] = biological target: CDK7 (human) (UniProt P50613); details: compound 1.0 µM
[32] = biological target: MTOR (human) (UniProt P42345); details: compound 1.0 µM
[33] = biological target: GSK3A (human) (UniProt P49840); details: compound 1.0 µM
[34] = biological target: EPHA3 (human) (UniProt P29320); details: compound 1.0 µM
[35] = biological target: MARK1 (human) (UniProt Q9P0L2); details: compound 1.0 µM
[36] = biological target: CaMK1 (human) (UniProt Q14012); details: compound 1.0 µM
[37] = biological target: GRK1 (human) (UniProt Q15835); details: compound 1.0 µM
Chain of GRK1 (human) (Q15835 whole entry, looked up): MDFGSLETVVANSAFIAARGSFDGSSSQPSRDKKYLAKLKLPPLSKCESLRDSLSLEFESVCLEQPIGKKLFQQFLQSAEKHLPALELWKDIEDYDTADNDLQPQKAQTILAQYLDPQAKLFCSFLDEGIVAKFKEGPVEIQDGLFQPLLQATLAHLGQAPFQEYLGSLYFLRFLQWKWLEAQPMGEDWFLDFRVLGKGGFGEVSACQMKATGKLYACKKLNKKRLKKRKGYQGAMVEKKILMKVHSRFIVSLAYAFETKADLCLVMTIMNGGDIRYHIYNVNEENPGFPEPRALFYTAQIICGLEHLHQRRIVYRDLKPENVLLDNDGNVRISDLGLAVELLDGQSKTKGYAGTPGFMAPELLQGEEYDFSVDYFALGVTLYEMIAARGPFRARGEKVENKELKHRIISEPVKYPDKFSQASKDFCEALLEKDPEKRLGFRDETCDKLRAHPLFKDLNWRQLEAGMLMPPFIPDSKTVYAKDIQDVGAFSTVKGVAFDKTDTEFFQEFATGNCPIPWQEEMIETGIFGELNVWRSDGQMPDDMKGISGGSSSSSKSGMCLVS

[38] = biological target: MAP4K4 (human) (UniProt O95819); details: compound 1.0 µM
[39] = biological target: NEK11 (human) (UniProt Q8NG66); details: compound 1.0 µM
[40] = biological target: ULK1 (human) (UniProt O75385); details: compound 1.0 µM
[41] = biological target: MAPK6 (human) (UniProt Q16659); details: for kinase still bound, per cent of control: compound 1.0 µM
Chain of MAPK6 (human) (Q16659 whole entry, looked up): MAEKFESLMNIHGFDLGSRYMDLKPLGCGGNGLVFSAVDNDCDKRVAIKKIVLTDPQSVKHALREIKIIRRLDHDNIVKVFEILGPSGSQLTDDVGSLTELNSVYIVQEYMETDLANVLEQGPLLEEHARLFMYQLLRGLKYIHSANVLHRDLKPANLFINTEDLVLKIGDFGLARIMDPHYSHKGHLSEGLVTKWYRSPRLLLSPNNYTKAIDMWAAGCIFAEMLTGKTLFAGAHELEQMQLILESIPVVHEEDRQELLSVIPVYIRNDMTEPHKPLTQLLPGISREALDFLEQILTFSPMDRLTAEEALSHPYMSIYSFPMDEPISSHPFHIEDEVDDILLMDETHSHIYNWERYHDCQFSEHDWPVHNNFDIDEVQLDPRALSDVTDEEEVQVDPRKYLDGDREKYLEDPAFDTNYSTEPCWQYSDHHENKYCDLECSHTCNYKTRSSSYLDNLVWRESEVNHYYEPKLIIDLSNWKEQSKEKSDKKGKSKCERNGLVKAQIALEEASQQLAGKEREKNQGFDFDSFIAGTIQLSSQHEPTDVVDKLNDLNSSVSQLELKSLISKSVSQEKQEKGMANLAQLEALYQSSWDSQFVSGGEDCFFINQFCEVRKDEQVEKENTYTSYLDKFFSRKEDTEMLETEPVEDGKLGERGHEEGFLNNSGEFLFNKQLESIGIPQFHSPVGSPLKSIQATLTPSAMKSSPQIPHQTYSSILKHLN

[42] = biological target: TBK1 (human) (UniProt Q9UHD2); details: compound 1.0 µM
[43] = biological target: CDC42BPB (human) (UniProt Q9Y5S2); details: compound 1.0 µM

Chain of FYN (human) (P06241 whole entry, looked up): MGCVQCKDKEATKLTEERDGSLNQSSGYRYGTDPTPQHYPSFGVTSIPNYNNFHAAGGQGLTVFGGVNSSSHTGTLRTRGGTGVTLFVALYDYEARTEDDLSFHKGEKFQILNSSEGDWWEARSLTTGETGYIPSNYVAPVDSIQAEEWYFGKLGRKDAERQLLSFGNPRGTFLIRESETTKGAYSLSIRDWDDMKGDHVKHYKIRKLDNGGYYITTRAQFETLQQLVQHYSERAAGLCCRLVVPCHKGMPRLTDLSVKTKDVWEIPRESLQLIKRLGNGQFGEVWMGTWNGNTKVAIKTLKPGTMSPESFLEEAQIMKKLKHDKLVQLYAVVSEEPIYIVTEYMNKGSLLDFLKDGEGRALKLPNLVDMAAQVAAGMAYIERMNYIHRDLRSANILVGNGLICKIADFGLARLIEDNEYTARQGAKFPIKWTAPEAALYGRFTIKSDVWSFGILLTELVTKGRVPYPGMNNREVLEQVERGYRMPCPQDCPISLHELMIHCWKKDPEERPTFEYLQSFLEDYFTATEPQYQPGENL

## CN(C)C/C=C/C(=O)Nc1cccc(C(=O)Nc2ccc(Nc3nccc(-c4cccnc4)n3)cc2)c1
[1]
  kinase still bound, per cent of control: 98%
[2]
  kinase still bound, per cent of control: 100%
[3]
  kinase still bound, per cent of control: 7%
[4]
  kinase still bound, per cent of control: 90%
[5]
  kinase still bound, per cent of control: 100%
[6]
  kinase still bound, per cent of control: 75%
[7]
  kinase still bound, per cent of control: 100%
[8]
  kinase still bound, per cent of control: 78%
[9]
  kinase still bound, per cent of control: 100%
[10]
  kinase still bound, per cent of control: 86%
[11]
  kinase still bound, per cent of control: 50%
[12]
  kinase still bound, per cent of control: 100%
[13]
  kinase still bound, per cent of control: 58%
[14]
  kinase still bound, per cent of control: 67%
[15]
  kinase still bound, per cent of control: 63%
[16]
  kinase still bound, per cent of control: 77%
[17]
  kinase still bound, per cent of control: 99%
[18]
  kinase still bound, per cent of control: 100%
[19]
  kinase still bound, per cent of control: 43%
[20]
  kinase still bound, per cent of control: 67%
[21]
  kinase still bound, per cent of control: 37%
[22]
  kinase still bound, per cent of control: 34%
[23]
  kinase still bound, per cent of control: 90%
[24]
  kinase still bound, per cent of control: 89%
[25]
  kinase still bound, per cent of control: 76%
[26]
  kinase still bound, per cent of control: 67%
[27]
  kinase still bound, per cent of control: 82%
[28]
  kinase still bound, per cent of control: 100%
[29]
  kinase still bound, per cent of control: 100%
[30]
  kinase still bound, per cent of control: 98%
[31]
  kinase still bound, per cent of control: 20%
[32]
  kinase still bound, per cent of control: 100%
[33]
  kinase still bound, per cent of control: 65%
[34]
  kinase still bound, per cent of control: 80%
[35]
  kinase still bound, per cent of control: 68%
[36]
  kinase still bound, per cent of control: 100%
[37]
  kinase still bound, per cent of control: 100%
[38]
  kinase still bound, per cent of control: 40%
[39]
  kinase still bound, per cent of control: 86%
[40]
  kinase still bound, per cent of control: 100%
[41]
  Kd: 22 nM
  kinase still bound, per cent of control: 0.4%
[42]
  kinase still bound, per cent of control: 61%
[43]
  kinase still bound, per cent of control: 93%

## CN(C)C/C=C/C(=O)Nc1cccc(C(=O)Nc2ccc(Nc3nccc(-c4c(-c5ccccc5)nn5ccccc45)n3)cc2)c1
[1]
  kinase still bound, per cent of control: 77%
[2]
  kinase still bound, per cent of control: 52%
[3]
  kinase still bound, per cent of control: 100%
[4]
  kinase still bound, per cent of control: 49%
[5]
  kinase still bound, per cent of control: 80%
[6]
  kinase still bound, per cent of control: 99%
[7]
  kinase still bound, per cent of control: 90%
[8]
  kinase still bound, per cent of control: 100%
[9]
  kinase still bound, per cent of control: 100%
[10]
  kinase still bound, per cent of control: 100%
[11]
  kinase still bound, per cent of control: 100%
[12]
  kinase still bound, per cent of control: 85%
[13]
  kinase still bound, per cent of control: 88%
[14]
  kinase still bound, per cent of control: 49%
[15]
  kinase still bound, per cent of control: 72%
[16]
  kinase still bound, per cent of control: 68%
[17]
  kinase still bound, per cent of control: 100%
[18]
  kinase still bound, per cent of control: 100%
[19]
  kinase still bound, per cent of control: 100%
[20]
  kinase still bound, per cent of control: 28%
[21]
  kinase still bound, per cent of control: 90%
[22]
  kinase still bound, per cent of control: 47%
[23]
  kinase still bound, per cent of control: 67%
[24]
  kinase still bound, per cent of control: 100%
[25]
  kinase still bound, per cent of control: 30%
[26]
  kinase still bound, per cent of control: 49%
[27]
  kinase still bound, per cent of control: 83%
[28]
  kinase still bound, per cent of control: 80%
[29]
  kinase still bound, per cent of control: 100%
[30]
  kinase still bound, per cent of control: 85%
[31]
  kinase still bound, per cent of control: 83%
[32]
  kinase still bound, per cent of control: 100%
[33]
  kinase still bound, per cent of control: 38%
[34]
  kinase still bound, per cent of control: 65%
[35]
  kinase still bound, per cent of control: 100%
[36]
  kinase still bound, per cent of control: 100%
[37]
  kinase still bound, per cent of control: 100%
[38]
  kinase still bound, per cent of control: 9.8%
[39]
  kinase still bound, per cent of control: 100%
[40]
  kinase still bound, per cent of control: 87%
[41]
  kinase still bound, per cent of control: 71%
[42]
  kinase still bound, per cent of control: 100%
[43]
  kinase still bound, per cent of control: 16%
